Values quoted from earlier work as cited in patent publication US8067434B2, “Compounds and methods for development of Ret modulators” (Plexxikon Inc., priority 2003, dated 2011).
One block for each compound: values may come before it.

Experiments:
[1] = tested on: TT cells, with RetC634 mutant; settings: TT cells in RPMI medium, varying concentrations
[2] = tested on: Ret; settings: DAergic neuron cultures
[3] = tested on: Ret kinase; settings: incubation with the inhibitor
[4] = tested on: Ret transformed NIH3T3; settings: Ret transformed NIH3T3, treatment with inhibitor

Compound: Cc1ccc(NC(=O)c2ccc(CN3CCN(C)CC3)cc2)cc1Nc1nccc(-c2cccnc2)n1 [STI571]
cell growth [1]: inhibiting cell growth

Compound: C[C@]12O[C@H](C[C@]1(O)C(=O)O)n1c3ccccc3c3c4c(c5c6ccccc6n2c5c31)CNC4=O [Compound K-252b, K-252b]
normal functioning of Ret in GDNF-induced differentiation [2]: inhibited

intracellular Ret kinase activity [3]: decreased
Compound: CO[C@H]1[C@@H](OC)C[C@H](C)[C@@H](OC)C2=CC(=O)C=C(NC(=O)/C(C)=C/C=C\[C@H](OC)[C@@H](OC(N)=O)/C(C)=C/[C@@H]1C)C2=O [herbimycin A]
cellular phenotype [4]: reverted the cellular phenotype to a more untransformed flat morphology

Compound: C=CCNC1=C2C[C@@H](C)C[C@H](OC)[C@H](O)[C@@H](C)/C=C(\C)[C@H](OC(N)=O)[C@@H](OC)/C=C\C=C(/C)C(=O)NC(=CC1=O)C2=O [allyl-geldanamycin]
cell growth [1]: inhibiting cell growth

Compound: O=c1c(-c2ccc(O)cc2)coc2cc(O)cc(O)c12 [genistein]
cell growth [1]: inhibiting cell growth
